Reference: patent US6514961B1, “Azetidinecarboxamide derivatives for the treatment of CNS disorders” (Vernalis Research Limited, priority 1998, dated 2003)

Legend:
[1] = tested on: anxiety (elevated zero-maze); experiment: Elevated zero-maze model of anxiolytic activity; format: in vivo, rats; settings: dose of 30 mg/Kg, orally 1 hour prior to zero-maze testing
Source text: Measurement of Anxiolytic Activity in Mice Using the Elevated Zero-maze Model
The elevated “zero-maze” is a modification of the elevated plus-maze model of anxiety which incorporates both traditional and novel ethological measures in the analysis of drug effects (Shepherd, J. K., Grewal, S. S., Fletcher, A., Bill, D. J. and Dourish, C. T., Behavioural and pharmacological characterisation of the elevated “zero-maze” as an animal model of anxiety. Psychopharmacology, 1994, 116, 56-64).
Male Sprague-Dawley rats (Charles River) weighing 300-450 gm are used. Animals are group-housed (5 per cage; cage size: 40×40×20 cm) in a temperature-controlled environment (20±2° C.), under a 12 h light-dark cycle (lights on: 08:00 hours). Food and water are made freely available. Four hours prior to testing, animals are transferred to clean cages and moved to the testing room in order to habituate to the testing environment.
The maze is comprised of a black Perspex annular platform (105 cm diameter, 10 cm width) elevated to 65 cm above ground level, divided equally into four quadrants. […]
Rats are placed on a closed quadrant and a 5 min test period is recorded on video-tape. […] Animals are scored as being in the open area when all four paws were in an open quadrant, and in the closed area only when all four paws passed over the open/closed divide. […]

Solubility measurement = format: physicochemical
3-MPA-induced seizures = experiment: Antagonism of 3-MPA-induced seizures; format: in vivo; settings: male T/O mice; test drug 30 ng/kg p.o. 60 min before i.v. bolus of 3-MPA; dose of 3-MPA required to evoke a seizure response
Protocol: Antagonism of 3-MPA-Induced Seizures
Several animal seizure models are available for the screening and characterisation of anticonvulsant (antiepileptic) drugs. Most models employ a chemical convulsant to induce seizures and the anticonvulsant potencies of novel compounds are measured in terms of their ability to increase the dose of convulsant required to induce a seizure response (or to prolong the latency to seizure onset following a bolus dose of the convulsant). Most chemical convulsants work by blocking the neurotransmitter function of gamma-aminobutyric acid (GABA), the predominant inhibitory neurotransmitter in the mammalian brain. This can be achieved by blocking the postsynaptic action of GABA using pentylenetetrazol or bicuculline, or via a presynaptic action using a GABA synthesis inhibitor to decrease GABA release into the synapse. In this case, the inhibitor of glutamate decarboxylase (GAD), 3-mercaptopropionic acid (3-MPA), was used as the convulsant challenge agent.
Male albino T/O strain mice (obtained from Tuck) weighing 28-40 g were used in these studies. Animals were assigned randomly to treatment groups and vehicle or test drug (at a dose of […]) were administered p.o. to groups of 12 animals 60 min before the administration of a bolus dose of 3-MPA intravenously. Immediately following 3-MPA administration, each mouse was placed individually into a cage for observation. The seizure response of each animal was scored quantally as present or absent (response or non-response) during the 5 min period immediately following 3-MPA administration. A seizure response was defined as the onset of the initial clonic phase of the seizure (abrupt loss of righting reflex accompanied by vocalisation). The seizure threshold (in terms of mg/kg i.v. of 3-MPA required to evoke a seizure response) was determined in each treatment group by a sequential up/down method followed by modified probit analysis of the quantal data A range of doses of 3-MPA was prepared (12.5-200.0 mg/kg i.v.) increasing by a constant geometric factor […], which was found in pilot studies to generate suitable data for analysis by this method.
In these studies, 3-MPA was obtained from Sigma
Test compounds were prepared as solutions dissolved in 45% w/v aqueous 2-hydroxypropyl-β-cyclodextrin. 3-MPA was dissolved in isotonic saline and its pH adjusted to 6 using 1M sodium hydroxide solution. Drugs were administered in a dose volume of 10 ml/kg body weight.

SMILES | Aqueous solubility at 1 mg/ml (Solubility measurement) | SC = seizure threshold after treatment with test drug (3-MPA-induced seizures) | also measured
C[C@@H](O)CNC(=O)N1CC(Oc2ccc(Cl)cc2)C1 (racemic) [Example 7, (R,S)-3-(4-Chlorophenoxy)-N-(2-hydroxypropyl)azetidine-1-carboximide] | – | – | anxiolytic activity (increase in the frequency of head dips) [1]: effective
C=CCNC(=O)N1CC(Oc2ccc(C(F)(F)F)cc2)C1 [3-(4-(trifluoromethyl)phenoxy)-N-(2-propenyl)azetidine-1-carboxamide] | Not soluble | – | –
CCCNC(=O)N1CC(Oc2ccc(Cl)cc2)C1 [3-(4-chlorophenoxy)-N-(propyl)azetidine-1-carboxamide] | Not soluble | – | –
NC(=O)N1CC(Oc2ccc(Cl)cc2)C1 [3-(4-chlorophenoxy)azetidine-1-carboxamide] | Not soluble | – | –
C[C@@H](O)CNC(=O)N1CC(Oc2ccc(C(C)(C)C)cc2)C1 [Example 1, (R)-3-(4-tert-Butylphenoxy)-N-(2-hydroxypropyl)azetidine-1-carboxamide] | – | 154.3 mg/kg i.v. | melting point: 98 to 99 °C
C[C@@H](O)CNC(=O)N1CC(Oc2ccc(Cl)cc2)C1 [Example 2, (R)-3-(4-Chlorophenoxy)-N-(2-hydroxypropyl)azetidine-1-carboxamide] | Soluble | 109.1 mg/kg i.v. | –
C[C@H](O)CNC(=O)N1CC(Oc2ccc(Cl)cc2)C1 [Example 3, (S)-3-(4-Chlorophenoxy)-N-(2-hydroxypropyl)azetidine-1-carboxamide] | – | 59.5 mg/kg i.v. | –
CC(C)(O)CNC(=O)N1CC(Oc2ccc(Cl)cc2)C1 [Example 4, 3-(4-Chlorophenoxy)-N-(2-hydroxy-2-methylpropyl)azetidine-1-carboxamide] | – | 36.9 mg/kg i.v. | –
C[C@@H](O)CNC(=O)N1CC(Oc2ccc(F)cc2)C1 [Example 5, (R)-3-(4-Fluorophenoxy)-N-(2-hydroxypropyl)azetidine-1-carboxamide] | – | 29.8 mg/kg i.v. | melting point: 112 to 114 °C
C[C@@H](O)CNC(=O)N1CC(Oc2ccc(Cl)c(Cl)c2)C1 [Example 6, (R)-3-(3,4-Dichlorophenoxy)-N-(2-hydroxypropyl)azetidine-1-carboxamide] | – | 59.5 mg/kg i.v. | –
C[C@@H](O)CNC(=O)N1CC(Oc2ccc(C(F)(F)F)cc2)C1 [Example 8] | Soluble | 214.1 mg/kg i.v. | –
